The subject of the data set is rodent lifetime carcinogenesis bioassay, tumor incidence TD50. Nature of the data set: carcinogenic potency in animals, long-term in vivo studies, CPDB compilation (AID 1745844).

SMILES strings stand for the structures. Calls of active or inactive are those of the source. The rule behind the calls is not given here.

The TD50 is the dose at which the toxic effect under study appears in half of the subjects.

`C/C=C/C=C/C(=O)O`: the TD50 (mouse, strain ASH-CS1, females, in feed, site: liver, lesion: hyperplastic nodule, dosed 80 weeks, study length 80 weeks) was 362000 mg/kg/day (inactive); the TD50 (rat, strain Wistar, females, in feed, site: liver, lesion: hemangioma, dosed 104 weeks, study length 104 weeks) is 34000 mg/kg/day (inactive); the TD50 (rat, strain Wistar, males, in feed, site: any site (literature study), lesion: malignant tumor, dosed 104 weeks, study length 104 weeks) was 51400 mg/kg/day (inactive); the TD50 (rat, strain Wistar, males, in feed, site: any site (literature study), lesion: several types, types named in the paper, dosed 104 weeks, study length 104 weeks) was 33900 mg/kg/day (inactive). Further, the carcinogen call runs as follows: (mouse, strain ASH-CS1, females, in feed, site: lung, lesion: adenoma, dosed 80 weeks, study length 80 weeks) “negative (inactive)”; (mouse, strain ASH-CS1, males, in feed, site: liver, lesion: hyperplastic nodule, dosed 80 weeks, study length 80 weeks) “negative (inactive)”; (mouse, strain ASH-CS1, males, in feed, site: lung, lesion: adenoma, dosed 80 weeks, study length 80 weeks) “negative (inactive)”; (rat, strain Wistar, females, in feed, site: any site (literature study), lesion: malignant tumor, dosed 104 weeks, study length 104 weeks) “negative (inactive)”; (rat, strain Wistar, females, in feed, site: any site (literature study), lesion: several types, types named in the paper, dosed 104 weeks, study length 104 weeks) “negative (inactive)”; (rat, strain Wistar, males, in feed, site: liver, lesion: hemangioma, dosed 104 weeks, study length 104 weeks) “negative (inactive)”.

In the case of `O=NN1CC=CCC1`, the TD50 was 0.216 mg/kg/day (rat, strain Fischer 344, females, in drinking water, site: esophagus, lesion: several types, types named in the paper, dosed 25 weeks, study length 128 weeks); 0.127 mg/kg/day (rat, strain Fischer 344, females, in drinking water, site: esophagus, lesion: several types, types named in the paper, dosed 70 weeks, study length 100 weeks); 0.0669 mg/kg/day (rat, strain Fischer 344, females, in drinking water, site: esophagus, lesion: several types, types named in the paper, dosed 100 weeks, study length 128 weeks); 0.43 mg/kg/day (rat, strain Fischer 344, females, in drinking water, site: esophagus, lesion: squamous-cell carcinoma, dosed 100 weeks, study length 128 weeks); 4.04 mg/kg/day (rat, strain Fischer 344, females, in drinking water, site: liver, lesion: hemangiosarcoma, dosed 25 weeks, study length 128 weeks); 2.15 mg/kg/day (rat, strain Fischer 344, females, in drinking water, site: liver, lesion: hyperplastic nodule, dosed 70 weeks, study length 100 weeks). For the same compound, the TD50 runs as follows: (rat, strain Fischer 344, females, in drinking water, site: liver, lesion: hyperplastic nodule, dosed 100 weeks, study length 128 weeks) 0.284 mg/kg/day; (rat, strain Fischer 344, females, in drinking water, site: liver, lesion: several types, types named in the paper, dosed 100 weeks, study length 128 weeks) 0.132 mg/kg/day; (rat, strain Fischer 344, females, in drinking water, site: stomach, nonglandular, lesion: basal-cell papilloma, dosed 100 weeks, study length 128 weeks) 0.0551 mg/kg/day; (rat, strain Fischer 344, females, in drinking water, site: upper gastrointestinal tract, lesion: carcinoma, dosed 25 weeks, study length 128 weeks) 0.271 mg/kg/day; (rat, strain Fischer 344, females, in drinking water, site: upper gastrointestinal tract, lesion: carcinoma, dosed 70 weeks, study length 100 weeks) 0.0966 mg/kg/day; (rat, strain Fischer 344, females, in drinking water, site: upper gastrointestinal tract, lesion: carcinoma, dosed 100 weeks, study length 128 weeks) 0.0856 mg/kg/day. The TD50 (rat, strain Fischer 344, females, in drinking water, site: upper gastrointestinal tract, lesion: several types, types named in the paper, dosed 25 weeks, study length 128 weeks) is 0.142 mg/kg/day and the TD50 (rat, strain Fischer 344, females, in drinking water, site: upper gastrointestinal tract, lesion: several types, types named in the paper, dosed 100 weeks, study length 128 weeks) is 0.0374 mg/kg/day. Further, the carcinogen call (rat, strain Fischer 344, females, in drinking water, site: liver, lesion: hepatocellular carcinoma, dosed 25 weeks, study length 128 weeks) is “positive”; the carcinogen call (rat, strain Fischer 344, females, in drinking water, site: liver, lesion: several types, types named in the paper, dosed 25 weeks, study length 128 weeks) was “positive”; the carcinogen call (rat, strain Fischer 344, females, in drinking water, site: stomach, nonglandular, lesion: basal-cell papilloma, dosed 25 weeks, study length 128 weeks) is “positive”; the carcinogen call (rat, strain Fischer 344, females, in drinking water, site: upper gastrointestinal tract, lesion: several types, types named in the paper, dosed 70 weeks, study length 100 weeks) was “positive”.

Take `Nc1ccc(Nc2ccccc2)cc1`: the carcinogen call is “negative (inactive)” (mouse, strain B6C3F1, females, in feed, site: any site (literature study), lesion: several types, types named in the paper, dosed 48 weeks, study length 91 weeks); “negative (inactive)” (mouse, strain B6C3F1, males, in feed, site: any site (literature study), lesion: several types, types named in the paper, dosed 48 weeks, study length 91 weeks); “negative (inactive)” (rat, strain Fischer 344, females, in feed, site: any site (literature study), lesion: several types, types named in the paper, dosed 78 weeks, study length 104 weeks). Moreover, the TD50 was 213 mg/kg/day (mouse, strain B6C3F1, males, in feed, site: liver, lesion: hepatocellular adenoma + hepatocellular carcinoma + neoplastic nodule, dosed 48 weeks, study length 91 weeks) and 161 mg/kg/day (inactive) (rat, strain Fischer 344, males, in feed, site: any site (literature study), lesion: several types, types named in the paper, dosed 78 weeks, study length 104 weeks).

As for `CC(C)CN(N=O)C(N)=O`, the TD50 reads like this: (rat, strain Donryu, females, in drinking water, site: any site (literature study), lesion: several types, types named in the paper, dosed 76 weeks, study length 76 weeks) 4.7 mg/kg/day; (rat, strain Donryu, females, in drinking water, site: digestive tract, lesion: several types, types named in the paper, dosed 76 weeks, study length 76 weeks) 4.73 mg/kg/day; (rat, strain Donryu, females, in drinking water, site: duodenum, lesion: several types, types named in the paper, dosed 76 weeks, study length 76 weeks) 7.22 mg/kg/day; (rat, strain Donryu, females, in drinking water, site: liver, lesion: several types, types named in the paper, dosed 76 weeks, study length 76 weeks) 1220 mg/kg/day; (rat, strain Donryu, females, in drinking water, site: stomach, glandular, lesion: several types, types named in the paper, dosed 76 weeks, study length 76 weeks) 23.1 mg/kg/day.

As for `CC(C)(c1ccc(O)cc1)c1ccc(O)cc1`, the carcinogen call by setting is: (mouse, strain B6C3F1, females, in feed, site: any site (literature study), lesion: several types, types named in the paper, dosed 103 weeks, study length 107 weeks) “negative (inactive)”; (rat, strain Fischer 344, females, in feed, site: any site (literature study), lesion: several types, types named in the paper, dosed 103 weeks, study length 108 weeks) “negative (inactive)”. For the same compound, the TD50 (mouse, strain B6C3F1, females, in feed, site: liver, lesion: hepatocellular adenoma + hepatocellular carcinoma + neoplastic nodule, dosed 103 weeks, study length 107 weeks) was 13100 mg/kg/day; the TD50 (mouse, strain B6C3F1, females, in feed, site: lung, lesion: alveolar/bronchiolar adenoma + alveolar/bronchiolar carcinoma, dosed 103 weeks, study length 107 weeks) was found to be 41400 mg/kg/day; the TD50 (mouse, strain B6C3F1, males, in feed, site: all sites, lesion: leukemia + lymphoma, dosed 103 weeks, study length 107 weeks) was 445 mg/kg/day (inactive); the TD50 (mouse, strain B6C3F1, males, in feed, site: all sites, lesion: lymphoma, dosed 103 weeks, study length 107 weeks) is 508 mg/kg/day; the TD50 (mouse, strain B6C3F1, males, in feed, site: any site (literature study), lesion: several types, types named in the paper, dosed 103 weeks, study length 107 weeks) turned out to be 1.32e+06 mg/kg/day; the TD50 (mouse, strain B6C3F1, males, in feed, site: pituitary gland, lesion: chromophobe carcinoma, dosed 103 weeks, study length 107 weeks) amounted to 6690 mg/kg/day. In addition, the TD50 is 595 mg/kg/day (rat, strain Fischer 344, females, in feed, site: liver, lesion: hepatocellular adenoma + hepatocellular carcinoma + neoplastic nodule, dosed 103 weeks, study length 108 weeks) and 675 mg/kg/day (inactive) (rat, strain Fischer 344, males, in feed, site: mammary gland, lesion: fibroadenoma, dosed 103 weeks, study length 108 weeks).

Consider `CN(C)C=O`, for which the TD50 (mouse, strain Charles River CD1, females, inhaled, site: liver, lesion: hepatocellular adenoma, dosed 78 weeks, study length 78 weeks) is 15800 mg/kg/day (inactive); the TD50 (mouse, strain Charles River CD1, males, inhaled, site: liver, lesion: hepatocellular carcinoma, dosed 78 weeks, study length 78 weeks) is 3070 mg/kg/day (inactive); the TD50 (rat, strain Charles River CD (Sprague-Dawley), males, inhaled, site: liver, lesion: hepatocellular adenoma, dosed 104 weeks, study length 104 weeks) is 2640 mg/kg/day (inactive); the TD50 (rat, strain Charles River CD (Sprague-Dawley), males, inhaled, site: liver, lesion: hepatocellular carcinoma, dosed 104 weeks, study length 104 weeks) was 3340 mg/kg/day (inactive). For the same compound, the carcinogen call runs as follows: (mouse, strain Charles River CD1, males, inhaled, site: liver, lesion: hepatocellular adenoma, dosed 78 weeks, study length 78 weeks) “negative (inactive)”; (rat, strain Charles River CD (Sprague-Dawley), females, inhaled, site: liver, lesion: hepatocellular adenoma, dosed 104 weeks, study length 104 weeks) “negative (inactive)”.

Turning to `CCOP(=S)(OCC)Oc1ccc([N+](=O)[O-])cc1`, the carcinogen call is, setting by setting: (mouse, strain B6C3F1, females, in feed, site: any site (literature study), lesion: several types, types named in the paper, dosed 80 weeks, study length 89 weeks) “negative (inactive)”; (rat, strain Osborne-Mendel, females, in feed, site: any site (literature study), lesion: several types, types named in the paper, dosed 80 weeks, study length 112 weeks) “negative (inactive)”. Moreover, the TD50 (mouse, strain B6C3F1, males, in feed, site: any site (literature study), lesion: several types, types named in the paper, dosed 67 weeks, study length 89 weeks) is 75.1 mg/kg/day (inactive); the TD50 (mouse, strain B6C3F1, males, in feed, site: liver, lesion: hepatocellular adenoma + hepatocellular carcinoma + neoplastic nodule, dosed 67 weeks, study length 89 weeks) was 111 mg/kg/day; the TD50 (mouse, strain B6C3F1, males, in feed, site: lung, lesion: alveolar/bronchiolar adenoma + alveolar/bronchiolar carcinoma, dosed 67 weeks, study length 89 weeks) turned out to be 52.5 mg/kg/day; the TD50 (rat, strain Osborne-Mendel, females, in feed, site: adrenal gland, lesion: cortical adenoma + cortical carcinoma, dosed 80 weeks, study length 109 weeks) was 3.93 mg/kg/day; the TD50 (rat, strain Osborne-Mendel, females, in feed, site: adrenal gland, lesion: cortical adenoma, dosed 80 weeks, study length 109 weeks) is 5.31 mg/kg/day; the TD50 (rat, strain Osborne-Mendel, females, in feed, site: liver, lesion: hepatocellular adenoma + hepatocellular carcinoma + neoplastic nodule, dosed 80 weeks, study length 112 weeks) amounted to 16.4 mg/kg/day. Moreover, the TD50 by setting is: (rat, strain Osborne-Mendel, females, in feed, site: mammary gland, lesion: fibroadenoma, dosed 80 weeks, study length 109 weeks) 2.07 mg/kg/day; (rat, strain Osborne-Mendel, males, in feed, site: adrenal gland, lesion: cortical adenoma + cortical carcinoma, dosed 80 weeks, study length 109 weeks) 5.22 mg/kg/day; (rat, strain Osborne-Mendel, males, in feed, site: adrenal gland, lesion: cortical adenoma, dosed 80 weeks, study length 109 weeks) 6.39 mg/kg/day; (rat, strain Osborne-Mendel, males, in feed, site: any site (literature study), lesion: several types, types named in the paper, dosed 80 weeks, study length 112 weeks) 3.65 mg/kg/day (inactive); (rat, strain Osborne-Mendel, males, in feed, site: liver, lesion: hepatocellular adenoma + hepatocellular carcinoma + neoplastic nodule, dosed 80 weeks, study length 112 weeks) 17.7 mg/kg/day; (rat, strain Osborne-Mendel, males, in feed, site: pancreatic islets, lesion: islet-cell carcinoma, dosed 80 weeks, study length 109 weeks) 19.2 mg/kg/day.

As for `CC(=O)NNC(=O)c1ccncc1`, the TD50 was 55700 mg/kg/day (mouse, strain Swiss albino, females, in drinking water, site: liver, lesion: several types, types named in the paper, dosed 94 weeks, study length 94 weeks); 319 mg/kg/day (mouse, strain Swiss albino, females, in drinking water, site: lung, lesion: several types, types named in the paper, dosed 94 weeks, study length 94 weeks); 342 mg/kg/day (mouse, strain Swiss albino, males, in drinking water, site: lung, lesion: several types, types named in the paper, dosed 92 weeks, study length 92 weeks). Under “mouse, strain Swiss albino, males, in drinking water, site: liver, lesion: hemangioma, dosed 92 weeks, study length 92 weeks”, the carcinogen call was “negative (inactive)”.
